Activity calls are given as the source filed them. No cut-off for these calls is given here.
Experiments:
Cynomolgus monkey [1] = experiment: Induction of immune response in cynomolgus monkey assessed as increase in number of peripheral blood monocytes at 5 mg/kg, sc within 24 hrs; type: functional, organism-based; design: dose 5 mg/kg; details: Macaca fascicularis
Mus musculus [2] = experiment: Induction of MCP1 secretion in C57BL/6 mouse plasma at 100 mg/kg, sc by Luminex Multiplex assay; type: functional, organism-based; design: dose 100 mg/kg
Cynomolgus monkey [3] = experiment: Induction of immune response in cynomolgus monkey assessed as increase in number of peripheral blood neutrophils at 5 mg/kg, sc within 24 hrs; type: functional, organism-based; design: dose 5 mg/kg; details: Macaca fascicularis
Cynomolgus monkey [4] = experiment: Increase in CD69 expression on CD3+ lymphocytes in cynomolgus monkey at 5 mg/kg, sc after 24 hrs by flow cytometry relative to control; type: functional, organism-based; design: dose 5 mg/kg; details: Macaca fascicularis
spleen [5] = experiment: Induction of chemokine secretion in C57BL/6 mouse spleen cells 100 ug/ml after 24 hrs by Luminex Multiplex assay; type: functional, cell-based
Mus musculus [6] = experiment: Induction of IP10 secretion in C57BL/6 mouse plasma at 100 mg/kg, sc by Luminex Multiplex assay; type: functional, organism-based; design: dose 100 mg/kg
Cynomolgus monkey [7] = experiment: Elevation of IP10 in cynomolgus monkey plasma at 5 mg/kg, sc after 24 hrs; type: functional, organism-based; design: dose 5 mg/kg; details: Macaca fascicularis
Mus musculus [8] = experiment: Induction of cytokine secretion in C57BL/6 mouse plasma at 100 mg/kg, sc by Luminex Multiplex assay; type: functional, organism-based; design: dose 100 mg/kg
Mus musculus [9] = experiment: Induction of IL12 secretion in sc dosed C57BL/6 mouse serum after 2 hrs by ELISA; type: functional, organism-based
Cynomolgus monkey [10] = experiment: Elevation of IFNalpha in cynomolgus monkey plasma at 5 mg/kg, sc after 24 hrs; type: functional, organism-based; design: dose 5 mg/kg; details: Macaca fascicularis
Cynomolgus monkey [11] = experiment: Increase in CD69 expression on CD16+ NK cells in cynomolgus monkey at 5 mg/kg, sc after 24 hrs by flow cytometry relative to control; type: functional, organism-based; design: dose 5 mg/kg; details: Macaca fascicularis
spleen [12] = experiment: Induction of cytokine secretion in C57BL/6 mouse spleen cells at 100 ug/ml after 24 hrs by Luminex Multiplex assay; type: functional, cell-based
Cynomolgus monkey [13] = experiment: Increase in CD69 expression on CD14+ monocytes in cynomolgus monkey at 5 mg/kg, sc after 24 hrs by flow cytometry relative to control; type: functional, organism-based; design: dose 5 mg/kg; details: Macaca fascicularis
Mus musculus [14] = experiment: Induction of chemokine secretion in C57BL/6 mouse plasma at 100 mg/kg, sc by Luminex Multiplex assay; type: functional, organism-based; design: dose 100 mg/kg
Mus musculus [15] = experiment: Induction of IFN-gamma-induced monoamine secretion in C57BL/6 mouse plasma at 100 mg/kg, sc by Luminex Multiplex assay; type: functional, organism-based; design: dose 100 mg/kg
[16] = molecular target: T1, Toll-like receptor 7 (Homo sapiens) (UniProt Q9NYK1); experiment: Activation of human TLR7 expressed in HEK293 cells assessed as increase in NF-kappaB activation at 100 ug/ml by SEAP assay; type: cell-based
T1 sequence (whole entry): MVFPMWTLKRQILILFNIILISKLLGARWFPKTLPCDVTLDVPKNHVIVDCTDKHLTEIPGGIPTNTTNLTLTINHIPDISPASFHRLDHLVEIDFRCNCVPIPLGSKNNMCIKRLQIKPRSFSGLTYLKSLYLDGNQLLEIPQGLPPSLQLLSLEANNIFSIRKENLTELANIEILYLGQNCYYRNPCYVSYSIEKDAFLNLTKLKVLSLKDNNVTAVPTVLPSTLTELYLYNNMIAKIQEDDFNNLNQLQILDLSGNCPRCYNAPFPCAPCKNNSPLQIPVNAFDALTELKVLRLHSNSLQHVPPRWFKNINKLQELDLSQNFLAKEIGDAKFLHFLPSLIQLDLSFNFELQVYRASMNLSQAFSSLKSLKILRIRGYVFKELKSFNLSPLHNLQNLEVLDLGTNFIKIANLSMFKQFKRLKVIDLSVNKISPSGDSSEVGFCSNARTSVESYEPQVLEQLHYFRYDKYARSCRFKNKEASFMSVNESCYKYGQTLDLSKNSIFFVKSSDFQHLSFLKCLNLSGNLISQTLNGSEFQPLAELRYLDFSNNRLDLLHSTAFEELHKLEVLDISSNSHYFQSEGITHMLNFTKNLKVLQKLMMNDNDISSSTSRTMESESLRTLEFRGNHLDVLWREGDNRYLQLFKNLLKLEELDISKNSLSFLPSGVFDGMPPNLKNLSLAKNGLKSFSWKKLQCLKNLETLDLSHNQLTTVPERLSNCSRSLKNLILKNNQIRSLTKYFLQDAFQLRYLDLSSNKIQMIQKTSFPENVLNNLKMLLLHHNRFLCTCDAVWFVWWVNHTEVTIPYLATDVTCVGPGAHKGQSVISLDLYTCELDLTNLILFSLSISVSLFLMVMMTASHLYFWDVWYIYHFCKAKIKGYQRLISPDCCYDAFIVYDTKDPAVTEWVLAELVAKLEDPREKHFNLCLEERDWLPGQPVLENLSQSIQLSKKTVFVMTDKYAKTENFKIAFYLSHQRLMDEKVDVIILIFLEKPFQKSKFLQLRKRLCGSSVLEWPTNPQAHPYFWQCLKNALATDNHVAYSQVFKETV

[17] = Stability in 1% human serum assessed as full length product after 10 mins; type: ADME, cell-free; details: read-out: Stability
[18] = molecular target: T2, Toll-like receptor 8 (Homo sapiens) (UniProt Q9NR97); experiment: Activation of human TLR8 expressed in HEK293 cells assessed as increase in NF-kappaB activation at 100 ug/ml by SEAP assay; type: cell-based
T2 sequence (whole entry): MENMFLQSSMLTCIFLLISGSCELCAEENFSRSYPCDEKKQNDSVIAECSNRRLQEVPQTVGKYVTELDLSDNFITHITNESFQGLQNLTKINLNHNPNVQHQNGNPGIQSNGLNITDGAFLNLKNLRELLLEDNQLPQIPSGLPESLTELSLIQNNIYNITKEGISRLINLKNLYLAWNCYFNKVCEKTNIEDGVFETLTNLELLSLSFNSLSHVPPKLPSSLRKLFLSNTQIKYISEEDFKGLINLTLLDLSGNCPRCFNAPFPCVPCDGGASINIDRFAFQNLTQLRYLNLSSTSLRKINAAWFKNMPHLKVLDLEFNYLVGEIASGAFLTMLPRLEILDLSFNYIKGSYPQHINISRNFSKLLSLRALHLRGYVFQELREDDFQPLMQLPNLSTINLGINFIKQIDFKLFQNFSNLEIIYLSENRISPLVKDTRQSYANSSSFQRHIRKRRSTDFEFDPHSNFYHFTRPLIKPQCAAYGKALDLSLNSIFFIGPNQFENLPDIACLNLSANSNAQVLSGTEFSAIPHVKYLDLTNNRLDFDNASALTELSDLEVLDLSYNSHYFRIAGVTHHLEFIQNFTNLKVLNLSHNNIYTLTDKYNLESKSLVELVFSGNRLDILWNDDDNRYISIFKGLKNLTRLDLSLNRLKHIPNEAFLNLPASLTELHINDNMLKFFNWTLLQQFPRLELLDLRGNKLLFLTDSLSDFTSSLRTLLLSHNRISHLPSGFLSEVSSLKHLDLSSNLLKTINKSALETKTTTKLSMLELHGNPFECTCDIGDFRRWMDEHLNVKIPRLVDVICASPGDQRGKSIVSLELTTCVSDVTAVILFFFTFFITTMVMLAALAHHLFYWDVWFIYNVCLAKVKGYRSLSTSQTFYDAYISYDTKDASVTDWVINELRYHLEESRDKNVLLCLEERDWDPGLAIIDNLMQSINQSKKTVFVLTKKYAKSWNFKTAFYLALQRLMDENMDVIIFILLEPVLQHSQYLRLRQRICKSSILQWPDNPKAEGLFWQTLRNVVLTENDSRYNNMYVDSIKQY

Mus musculus [19] = experiment: Induction of IL12 secretion in C57BL/6 mouse plasma at 100 mg/kg, sc by Luminex Multiplex assay; type: functional, organism-based; design: dose 100 mg/kg
Dendritic cell = experiment: Induction of IFNalpha secretion in human plasmacytoid dendritic cells at 200 ug/ml after 24 hrs by Luminex Multiplex assay; type: functional
Mus musculus [20] = experiment: Induction of IL10 secretion in C57BL/6 mouse plasma at 100 mg/kg, sc by Luminex Multiplex assay; type: functional, organism-based; design: dose 100 mg/kg

With `Nc1ccn([C@@H]2O[C@H](COP(O)(=S)O[C@H]3[C@@H](O)[C@H](n4ccc(=O)[nH]c4=O)O[C@@H]3COP(O)(=S)O[C@H]3[C@@H](O)[C@H](n4ccc(=O)[nH]c4=O)O[C@@H]3COP(O)(=S)O[C@H]3[C@@H](O)[C@H](n4ccc(N)nc4=O)O[C@@H]3COP(O)(=S)O[C@H]3[C@@H](O)[C@H](n4ccc5c(=O)[nH]c(N)nc54)O[C@@H]3COP(O)(=S)O[C@H]3[C@@H](O)[C@H](n4ccc(=O)[nH]c4=O)O[C@@H]3COP(O)(=S)O[C@H]3[C@@H](O)[C@H](n4ccc(N)nc4=O)O[C@@H]3COP(O)(=S)O[C@H]3[C@@H](O)[C@H](n4ccc5c(=O)[nH]c(N)nc54)O[C@@H]3COP(O)(=S)O[C@H]3[C@@H](O)[C@H](n4ccc(=O)[nH]c4=O)O[C@@H]3CO)[C@@H](OP(O)(=S)OC[C@H]3O[C@@H](n4ccc(=O)[nH]c4=O)[C@H](O)[C@@H]3OP(O)(=S)OC[C@H]3O[C@@H](n4ccc5c(=O)[nH]c(N)nc54)[C@H](O)[C@@H]3OP(O)(=S)OCC(O)COP(O)(=S)O[C@H]3[C@@H](O)[C@H](n4ccc5c(=O)[nH]c(N)nc54)O[C@@H]3COP(O)(=S)O[C@H]3[C@@H](O)[C@H](n4ccc(=O)[nH]c4=O)O[C@@H]3COP(O)(=S)O[C@H]3[C@@H](O)[C@H](n4ccc(N)nc4=O)O[C@@H]3COP(O)(=S)O[C@H]3[C@@H](O)[C@H](n4ccc(=O)[nH]c4=O)O[C@@H]3COP(O)(=S)O[C@H]3[C@@H](O)[C@H](n4ccc(=O)[nH]c4=O)O[C@@H]3COP(O)(=S)O[C@H]3[C@@H](O)[C@H](n4ccc(N)nc4=O)O[C@@H]3COP(O)(=S)O[C@H]3[C@@H](O)[C@H](n4ccc5c(=O)[nH]c(N)nc54)O[C@@H]3COP(O)(=S)O[C@H]3[C@@H](O)[C@H](n4ccc(=O)[nH]c4=O)O[C@@H]3COP(O)(=S)O[C@H]3[C@@H](O)[C@H](n4ccc(N)nc4=O)O[C@@H]3COP(O)(=S)O[C@H]3[C@@H](O)[C@H](n4ccc5c(=O)[nH]c(N)nc54)O[C@@H]3COP(O)(=S)O[C@H]3[C@@H](O)[C@H](n4ccc(=O)[nH]c4=O)O[C@@H]3CO)[C@H]2O)c(=O)n1` (stereo partly specified) as the molecule, how does the Activity (Cynomolgus monkey [1]) read?
Its Activity is “Active”.

And the Activity (Mus musculus [2])?
Its Activity is “Active”.

And the Activity (Cynomolgus monkey [3])?
The Activity was “Active”.

And the Activity (Cynomolgus monkey [4])?
Its Activity is “Active”.

What about the Activity (spleen [5]) of the same molecule?
Its Activity is “Dose-dependent effect”.

And the Activity (Mus musculus [6])?
Its Activity is “Active”.

What about the Activity (Cynomolgus monkey [7]) of the same molecule?
Its Activity is “Active”.

And the Activity (Mus musculus [8])?
The Activity was “inactive”.

What about the Activity (Mus musculus [9]) of the same molecule?
The Activity was “Dose-dependent effect”.

And the Activity (Cynomolgus monkey [10])?
Its Activity is “Active”.

What about the Activity (Cynomolgus monkey [11]) of the same molecule?
The Activity was “Active”.

And the Activity (spleen [12])?
The Activity was “Dose-dependent effect”.

And the Activity (Cynomolgus monkey [13])?
Its Activity is “Active”.

And the Activity (Mus musculus [14])?
Its Activity is “inactive”.

And the Activity (Mus musculus [15])?
Its Activity is “Active”.

What about the Activity [16] of the same molecule?
The Activity was “Active”.

What about the remaining at 10 min [17] of the same molecule?
Its remaining at 10 min is 57%.

What about the Activity [18] of the same molecule?
The Activity was “Active”.

And the Activity (Mus musculus [19])?
The Activity was “Active”.

And the Activity (Dendritic cell)?
Its Activity is “Active”.

And the Activity (Mus musculus [20])?
Its Activity is “Active”.
